# Data reported in patent US11845809B2, “Maleate of SCY-635 and uses thereof in medicine” (priority 2018, dated 2023).
# Where two headings read alike, the source gives them in different places.
# Experiments:
# [1] = assay type: physicochemical; details: for Final pH of supernatant: FaSSIF, RT
# Source text: (§1) Crystalline maleate was recommended as a leading salt and further evaluated by kinetic solubility and physicochemical stability.
# [2] = One-week physicochemical stability evaluation (HPLC purity); details: for Purity (area%) / Purity of initial (%): open, one week
# Method: Physicochemical stability of crystalline maleate was evaluated under 25° C./60% RH-open and 40° C./75% RH-open for one week.
# [3] = assay type: physicochemical; details: for Final pH of supernatant: water, RT
# Source text: as §1
# [4] = molecular target: P-glycoprotein (Homo sapiens, UniProt P08183); details: cited from earlier work
# Sequence of P-glycoprotein (P08183 whole entry): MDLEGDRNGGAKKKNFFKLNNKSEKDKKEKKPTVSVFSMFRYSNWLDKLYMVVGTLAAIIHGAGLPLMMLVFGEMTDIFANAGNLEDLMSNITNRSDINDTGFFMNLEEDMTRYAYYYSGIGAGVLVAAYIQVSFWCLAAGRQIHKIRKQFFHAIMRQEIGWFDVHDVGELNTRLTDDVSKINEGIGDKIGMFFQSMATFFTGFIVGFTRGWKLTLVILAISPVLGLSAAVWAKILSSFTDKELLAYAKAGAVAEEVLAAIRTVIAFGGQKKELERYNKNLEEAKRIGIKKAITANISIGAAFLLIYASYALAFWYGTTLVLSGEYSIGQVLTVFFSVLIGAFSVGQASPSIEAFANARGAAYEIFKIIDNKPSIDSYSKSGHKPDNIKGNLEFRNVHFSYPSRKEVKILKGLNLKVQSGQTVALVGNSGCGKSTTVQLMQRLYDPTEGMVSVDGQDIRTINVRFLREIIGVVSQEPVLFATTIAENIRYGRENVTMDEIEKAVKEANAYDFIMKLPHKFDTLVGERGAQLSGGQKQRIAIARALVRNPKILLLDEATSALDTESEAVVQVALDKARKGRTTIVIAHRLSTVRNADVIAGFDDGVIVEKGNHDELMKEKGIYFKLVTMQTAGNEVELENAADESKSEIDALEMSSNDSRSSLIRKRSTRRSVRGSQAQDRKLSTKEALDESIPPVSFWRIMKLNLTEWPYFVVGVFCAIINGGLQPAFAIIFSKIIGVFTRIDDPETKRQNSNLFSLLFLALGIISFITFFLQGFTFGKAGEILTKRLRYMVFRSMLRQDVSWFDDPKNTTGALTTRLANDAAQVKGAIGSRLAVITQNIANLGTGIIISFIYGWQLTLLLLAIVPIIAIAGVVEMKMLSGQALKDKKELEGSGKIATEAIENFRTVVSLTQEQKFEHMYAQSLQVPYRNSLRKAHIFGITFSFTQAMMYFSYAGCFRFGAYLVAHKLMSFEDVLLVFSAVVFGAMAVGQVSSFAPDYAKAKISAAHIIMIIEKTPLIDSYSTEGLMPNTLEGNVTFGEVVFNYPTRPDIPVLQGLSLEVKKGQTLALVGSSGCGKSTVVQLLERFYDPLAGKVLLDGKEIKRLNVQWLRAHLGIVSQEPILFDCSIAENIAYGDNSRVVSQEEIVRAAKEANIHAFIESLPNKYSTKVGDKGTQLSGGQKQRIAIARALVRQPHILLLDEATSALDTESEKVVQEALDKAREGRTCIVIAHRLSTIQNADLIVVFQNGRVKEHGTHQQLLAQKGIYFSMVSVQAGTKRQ
# [5] = system: cytochrome P450 1A2; details: cited from earlier work
# [6] = system: cytochrome P450 3A4; details: cited from earlier work
# [7] = system: hepatitis C virus (HCV); details: cited from earlier work
# [8] = system: stimulated Jurkat cells; details: cited from earlier work
# [9] = system: calcineurin; details: at concentrations up to 2 μM; cited from earlier work
# [10] = system: stimulated human peripheral blood mononuclear cells; details: cited from earlier work
# [11] = in vivo, cited from earlier work
# [12] = system: hepatitis C virus (HCV); details: cited from earlier work; remark: listed apart in the source
# [13] = system: cytochrome P450 2B6; details: cited from earlier work
# [14] = molecular target: cyclophilin A (Homo sapiens, UniProt P62937); details: cited from earlier work
# Sequence of cyclophilin A (P62937 whole entry, species assumed): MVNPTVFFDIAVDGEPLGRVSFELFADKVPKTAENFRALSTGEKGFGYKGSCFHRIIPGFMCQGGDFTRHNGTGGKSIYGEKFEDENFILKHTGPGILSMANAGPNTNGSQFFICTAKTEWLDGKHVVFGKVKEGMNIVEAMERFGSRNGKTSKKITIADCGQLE
# [15] = physchem; assay type: physicochemical; details: fassif, thermodynamic from solid, Solubility (S)
compound,measurement,setting,value
Maleate,Solubility compared with amorphous and crystalline freebase,[1],significant solubility improvement
same,Final pH of supernatant,[1]; 6 hrs,6.0
same,Purity (area%),[2]; 25° C./60% RH,100.0 area%
same,Purity of initial (%),[2]; 25° C./60% RH,100.0%
same,Purity (area%),[2]; 40° C./75% RH,100.0 area%
same,Purity of initial (%),[2]; 40° C./75% RH,100.0%
same,Chemical stability,"[2]; both 25° C./60% RH and 40° C./75% RH, at least one week",good chemical stability
same,Solubility compared with amorphous and crystalline freebase,[3],significant solubility improvement
same,Final pH of supernatant,[3]; 6 hrs,4.9
"C/C=C/C[C@@H](C)[C@@H](O)[C@H]1C(=O)N[C@@H](CC)C(=O)N(C)[C@H](SCCN(C)C)C(=O)N(C)[C@@H](CC(C)(C)O)C(=O)N[C@@H](C(C)C)C(=O)N(C)[C@@H](CC(C)C)C(=O)N[C@@H](C)C(=O)N[C@H](C)C(=O)N(C)[C@@H](CC(C)C)C(=O)N(C)[C@@H](CC(C)C)C(=O)N(C)[C@@H](C(C)C)C(=O)N1C [SCY-635, (3S,6S,9S,12R,15S,18S,21S,24S,27R,30S,33S)-27-((2-(dimethylamino)ethyl)thio)-30-ethyl-33-((1R,2R,E)-1-hydroxy-2-methylhex-4-en-1-yl)-24-(2-hydroxy-2-methylpropyl)-6,9,18-triisobutyl-3,21-diisopropyl-1,4,7,10,12,15,19,25,28-nonamethyl-1,4,7,10,13,16,19,22,25,28,31-undecaazacyclotritriacontan-2,5,8,11,14,17,20,23,26,29,32-undecaone]",P-glycoprotein inhibition,[4],weak inhibitor
same,P-glycoprotein substrate,[4],poor substrate
same,Induction of cytochrome P450 1A2,[5],did not induce
same,Induction of cytochrome P450 3A4,[6],did not induce
same,Suppression of HCV replication in vitro,[7],potent suppression
same,Inhibition of interleukin-2 secretion compared with cyclosporine,[8],weaker inhibitor
same,Inhibition of calcineurin phosphatase activity,[9],no detectable inhibition
same,Inhibition of interleukin-2 secretion compared with cyclosporine,[10],weaker inhibitor
same,Blood and liver concentrations of parent drug versus replicon 50% effective dose,[11]; po,exceeded the 50% effective dose
same,Oral bioavailability,[11],orally bioavailable
same,Antiviral activity in combination,[12]; with alpha interferon 2b,synergistic antiviral activity
same,Antiviral activity in combination,[12]; with ribavirin,additive antiviral activity
same,Induction of cytochrome P450 2B6,[13],did not induce
same,Inhibition of peptidyl prolyl isomerase activity of cyclophilin A,[14],at nanomolar concentrations
C/C=C/C[C@@H](C)[C@@H](O)[C@H]1C(=O)N[C@@H](CC)C(=O)N(C)[C@H](SCCN(C)C)C(=O)N(C)[C@@H](CC(C)(C)O)C(=O)N[C@@H](C(C)C)C(=O)N(C)[C@@H](CC(C)C)C(=O)N[C@@H](C)C(=O)N[C@H](C)C(=O)N(C)[C@@H](CC(C)C)C(=O)N(C)[C@@H](CC(C)C)C(=O)N(C)[C@@H](C(C)C)C(=O)N1C [Freebase Type A],Final pH of supernatant,[1]; 2 hrs,6.8
same,Final pH of supernatant,[1]; 4 hrs,6.8
same,Final pH of supernatant,[1]; 6 hrs,7.0
same,solubility at 2 h,[15],3700 µg/mL
same,solubility at 4 h,[15],4700 µg/mL
same,solubility at 6 h,[15],5600 µg/mL
same,Solubility (S),[3]; 2 h,100 µg/mL
same,Solubility (S),[3]; 4 h,100 µg/mL
same,Solubility (S),[3]; 6 h,300 µg/mL
same,Final pH of supernatant,[3]; 2 hrs,6.7
same,Final pH of supernatant,[3]; 4 hrs,6.5
same,Final pH of supernatant,[3]; 6 hrs,6.6
C/C=C/C[C@@H](C)[C@@H](O)[C@H]1C(=O)N[C@@H](CC)C(=O)N(C)[C@H](SCCN(C)C)C(=O)N(C)[C@@H](CC(C)(C)O)C(=O)N[C@@H](C(C)C)C(=O)N(C)[C@@H](CC(C)C)C(=O)N[C@@H](C)C(=O)N[C@H](C)C(=O)N(C)[C@@H](CC(C)C)C(=O)N(C)[C@@H](CC(C)C)C(=O)N(C)[C@@H](C(C)C)C(=O)N1C [Freebase amorphous],Final pH of supernatant,[1]; 2 hrs,6.9
same,Final pH of supernatant,[1]; 4 hrs,6.9
same,Final pH of supernatant,[1]; 6 hrs,7.0
same,Final pH of supernatant,[3]; 2 hrs,4.9
same,Final pH of supernatant,[3]; 4 hrs,4.7
same,Final pH of supernatant,[3]; 6 hrs,6.2
